What all share (assay): NCI tumour cell line growth inhibition, 48 h
The subject of assay [1] is U-251.
The test system of assay [2] is NCI-H226.
The test system of assay [3] is SF-539.
The test system of assay [4] is UO-31.
Assay [5] has as its system NCI/ADR-RES.
Assay [6] has as its system SK-OV-3.
For assay [7], the system named is CCRF-CEM.
For assay [8], the system named is K562.
Assay [9] relates to MDA-N.
Assay [10] relates to TK-10.
Assay [11] has as its system CAKI-1.
Assay [12] relates to A549.
Assay [13] has as its system HCT-15.
In assay [14] the test system is SF-295.
Assay [15] relates to HCC 2998.
Assay [16] has as its system NCI-H522.
Assay [17] deals with NCI-H23.
Assay [18] relates to SNB-19.
Assay [19] deals with SK-MEL-2.
Assay [20] deals with MCF7.

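Briefly, cells in 96-well plates were exposed to five compound concentrations for 48 h, and endpoints were estimated by linear interpolation. GI50: concentration for 50% inhibition of growth.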 Calls of active or inactive are those of the source. Rule as the data show it: active = GI50 up to about 1.1 µM and inactive = higher.

Consider `O=C1NC(=N/c2ccccc2)/C(=N\c2ccccc2)N1c1ccccc1`, for which the GI50 in [1] was 15.6 µM (inactive); in assay [2] it was 16.9 µM (inactive); in assay [3] it was 17.4 µM (inactive); in assay [4], 16.5 µM (inactive); in assay [5] it was 15.5 µM (inactive); in assay [6], 17.6 µM (inactive). The GI50 in assay [7] is 30.3 µM (inactive); in assay [8], 26.5 µM (inactive); in assay [9], 12.3 µM (inactive); in [10] it was 16.9 µM (inactive); in assay [11], 16.3 µM (inactive); in assay [12], 15.9 µM (inactive). Further, the GI50 in assay [13] is 14.5 µM; in assay [14], 15.8 µM (inactive); in [15], 16.9 µM (inactive); in [16], 1.7 µM (inactive); in [17], 16.7 µM (inactive); in assay [18] it was 17 µM (inactive). Besides, the GI50 in assay [19] is 15.1 µM (inactive).
For the molecule `CC(=O)CCC1(C(=O)OCC(C)C)CCCC1=O` (stereo unspecified), the GI50 in assay [1], in [2], in [3], in assay [4], in assay [5] and in assay [6] was > 100 µM (inactive) in each case. Moreover, the GI50 in [7], in [8], in [9], in [10], in [11] and in assay [12] was > 100 µM (inactive) in each case. The GI50 in [13] was over 100 µM; in assay [14], > 100 µM (inactive); in assay [16], > 100 µM (inactive); in assay [17], > 100 µM (inactive); in assay [18] it was > 100 µM (inactive); in [19], > 100 µM (inactive).
For the molecule `COc1cc(/C=C2\CCC(C)C3=C2NC(=S)NC3c2cc(OC)c(OC)c(OC)c2)cc(OC)c1OC` (stereo unspecified), the GI50 in [1] is 46.8 µM (inactive); in assay [4], 15.8 µM (inactive); in [6], > 100 µM (inactive); in assay [7], 25.2 µM (inactive); in [8], 26.1 µM (inactive); in assay [9], 43.1 µM (inactive). In addition, the GI50 was 70.6 µM (inactive) in assay [10]; 35.7 µM (inactive) in assay [20]; 81.5 µM (inactive) in [11]; 36.4 µM (inactive) in assay [12]; 47.4 µM in assay [13]; 51.8 µM (inactive) in assay [18]. The GI50 in assay [19] is > 100 µM (inactive).
For `CSC(SC)=C1C(=O)NN=C1C`, the GI50 in assay [1], in [2], in assay [3], in assay [4], in assay [6] and in assay [7] was > 100 µM (inactive) each time. Also, the GI50 in assay [8] is > 100 µM (inactive); in assay [9] it was > 100 µM (inactive); in assay [10], > 100 µM (inactive); in assay [20], > 100 µM (inactive); in assay [11], 89.3 µM (inactive); in assay [12], > 100 µM (inactive). Further, the GI50 in assay [13] was over 100 µM; in assay [14], > 100 µM (inactive); in [15], > 100 µM (inactive); in [16] it was 47 µM (inactive); in [17], > 100 µM (inactive); in assay [18] it was > 100 µM (inactive). In assay [19], the GI50 is > 100 µM (inactive).
As for `CC1C2CC(CC(=O)N2)C1(C)C` (stereo unspecified), the GI50 in [1], in assay [2], in [3], in assay [4], in assay [6] and in assay [7] was > 100 µM (inactive) throughout. The GI50 in [8], in assay [9], in assay [10], in [20], in assay [11] and in assay [12] was > 100 µM (inactive) throughout. The GI50 in assay [14], in assay [15], in [16], in assay [17] and in assay [18] was > 100 µM (inactive) each time.
`NNC(=O)c1nnn(N)c1S`: the GI50 in [1], in assay [2], in assay [3], in [4], in [5] and in [6] was > 100 µM (inactive) throughout. Also, the GI50 in [7] is 66.1 µM (inactive); in assay [8], 36.8 µM (inactive); in [9], > 100 µM (inactive); in [10] it was > 100 µM (inactive); in assay [11] it was 84.5 µM (inactive); in assay [12], > 100 µM (inactive). Also, the GI50 in assay [13] was over 100 µM; in [14], > 100 µM (inactive); in assay [15], > 100 µM (inactive); in [16], > 100 µM (inactive); in [17], > 100 µM (inactive); in assay [19], > 100 µM (inactive).
Consider `NC(Cc1ccc(B(O)O)cc1)C(=O)NC(CO)CO` (stereo unspecified), for which the GI50 in assay [1], in [2], in assay [3], in assay [4], in [5] and in assay [6] was > 100 µM (inactive) throughout. The GI50 in assay [7], in assay [8], in assay [9], in [10], in assay [11] and in assay [12] was > 100 µM (inactive) each time. Besides, the GI50 is over 100 µM in assay [13]; > 100 µM (inactive) in assay [14]; > 100 µM (inactive) in [15]; > 100 µM (inactive) in [16]; > 100 µM (inactive) in assay [17]; > 100 µM (inactive) in assay [18]. The GI50 in [19] is > 100 µM (inactive).
Regarding `C=C1C[C@H]2C=Nc3cc(OCCCOc4cc5c(cc4OC)C(=O)N4CC(=C)C[C@H]4C=N5)c(OC)cc3C(=O)N2C1` [SJG-136], the GI50 is < 0.01 µM (active) in [1]; 0.0122 µM (active) in [2]; < 0.01 µM (active) in assay [3]; 0.0208 µM (active) in [4]; 0.0216 µM (active) in assay [6]; < 0.01 µM (active) in assay [7]. The GI50 in assay [8] is < 0.01 µM (active); in assay [9] it was 0.0143 µM (active); in assay [10] it was 0.0316 µM (active); in [20] it was 0.012 µM (active); in assay [11], < 0.01 µM (active); in assay [12] it was 0.0157 µM (active). For the same molecule, the GI50 is 0.124 µM in assay [13]; < 0.01 µM (active) in assay [14]; 0.0126 µM (active) in assay [15]; 0.0014 µM (active) in assay [16]; 0.00166 µM (active) in assay [17]; < 0.01 µM (active) in assay [18].

Source of the values: ChEMBL document CHEMBL1201862, “PubChem BioAssay data set” (2004).
